Source: US20250074939A1, “SEA URCHIN-DERIVED PEPTIDE AND USE THEREOF” (NATIONAL MARINE BIODIVERSITY INSTITUTE OF KOREA, priority 2021, published 2025)
Where a SMILES comes first, the peptide text is derived from it. Bridges are numbered along the chain shown (N, C = ends).

How the values were obtained:
[1] = target: T1, recombinant human vasopressin V1A receptor (Homo sapiens, UniProt P37288); test: cell-based or functional assay
[2] = target: T2, recombinant human vasopressin V1B receptor (human) (UniProt P47901); test: cell-based or functional assay
T2 sequence (looked up): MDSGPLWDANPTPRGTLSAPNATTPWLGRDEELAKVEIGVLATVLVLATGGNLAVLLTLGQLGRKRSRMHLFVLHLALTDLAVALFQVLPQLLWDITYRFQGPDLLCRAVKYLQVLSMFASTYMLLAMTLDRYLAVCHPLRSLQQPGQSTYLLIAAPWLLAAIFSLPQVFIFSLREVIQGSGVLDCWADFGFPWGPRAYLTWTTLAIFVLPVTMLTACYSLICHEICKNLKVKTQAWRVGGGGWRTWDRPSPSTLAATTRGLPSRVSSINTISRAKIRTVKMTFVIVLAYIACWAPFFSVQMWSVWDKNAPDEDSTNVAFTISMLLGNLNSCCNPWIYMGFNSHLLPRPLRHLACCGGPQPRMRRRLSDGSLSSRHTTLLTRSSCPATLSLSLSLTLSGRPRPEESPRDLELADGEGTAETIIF

[3] = target: T3, recombinant human vasopressin V2 receptor (Homo sapiens, UniProt P30518); test: cell-based or functional assay
[4] = target: T4, recombinant human oxytocin receptor (Homo sapiens, UniProt P30559); test: cell-based or functional assay
T4 sequence (P30559 whole entry): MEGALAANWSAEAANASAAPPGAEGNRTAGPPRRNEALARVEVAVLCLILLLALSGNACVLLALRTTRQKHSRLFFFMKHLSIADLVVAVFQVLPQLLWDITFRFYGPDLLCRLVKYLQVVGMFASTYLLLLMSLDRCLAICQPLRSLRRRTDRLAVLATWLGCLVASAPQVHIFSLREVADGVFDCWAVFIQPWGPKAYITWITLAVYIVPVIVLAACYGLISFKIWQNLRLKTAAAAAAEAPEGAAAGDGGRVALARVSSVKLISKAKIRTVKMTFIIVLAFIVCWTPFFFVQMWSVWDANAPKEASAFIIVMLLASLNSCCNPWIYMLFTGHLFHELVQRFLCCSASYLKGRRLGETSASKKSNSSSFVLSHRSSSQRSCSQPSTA

[5] = target: T5, recombinant human vasopressin V1B receptor (Homo sapiens, UniProt P47901); test: cell-based
[6] = target: T4, recombinant human oxytocin receptor; test: cell-based
[7] = target: T3, recombinant human vasopressin V2 receptor; test: cell-based
[8] = target: T1, recombinant human vasopressin V1A receptor; test: cell-based
[9] = test system: tube foot and esophageal tissues isolated from Echinus esculentus; conditions: cited from earlier work
[10] = target: T5, recombinant human vasopressin V1B receptor

T1 sequence (P37288 whole entry): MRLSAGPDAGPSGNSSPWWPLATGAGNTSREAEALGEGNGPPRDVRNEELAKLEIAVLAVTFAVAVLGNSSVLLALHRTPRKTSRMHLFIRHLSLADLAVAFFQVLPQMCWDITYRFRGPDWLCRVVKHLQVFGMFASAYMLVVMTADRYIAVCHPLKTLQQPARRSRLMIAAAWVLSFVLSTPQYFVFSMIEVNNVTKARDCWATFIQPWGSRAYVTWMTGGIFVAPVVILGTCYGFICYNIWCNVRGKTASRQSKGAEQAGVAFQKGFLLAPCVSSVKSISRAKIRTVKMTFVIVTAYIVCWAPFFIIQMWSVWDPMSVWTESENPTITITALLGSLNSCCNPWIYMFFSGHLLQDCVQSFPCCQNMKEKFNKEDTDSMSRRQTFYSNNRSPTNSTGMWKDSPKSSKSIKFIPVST

| Compound | receptor inhibition: intracellular calcium response to 10 nM vasopressin (calcium dye fluorescence imaging) [1] [µM] | receptor activation: increase of intracellular calcium concentration (calcium dye fluorescence imaging), relative to 0.1 µM vasopressin [2] [nM] | receptor activation: intracellular cAMP accumulation (HTRF), relative to 1 nM vasopressin [3] [nM] | receptor inhibition: intracellular calcium response to 30 nM oxytocin (calcium dye fluorescence imaging) [4] [UM] | EC50 [5] [nM] | IC50 [6] [nM] | EC50 [7] [nM] | IC50 [8] [nM] | contraction of isolated tube foot and esophageal tissues [9] | receptor selectivity at appropriate concentration [10] |
| --- | --- | --- | --- | --- | --- | --- | --- | --- | --- | --- |
| Echinotocin (Strongylocentrotus purpuratus-derived peptide, SEQ ID NO: 1) | 1 | 49.1 | 3.68 | 1.7 | – | – | – | – | – | – |
| CC[C@H](C)[C@@H]1NC(=O)[C@H](Cc2ccccc2)NC(=O)[C@@H](N)CSSC[C@@H](C(=O)N2CCC[C@H]2C(=O)N[C@@H](CCCCN)C(=O)NCC(N)=O)NC(=O)[C@H](CC(N)=O)NC(=O)[C@H](CO)NC1=O [Echinotocin] (H-CFISNCPKG-NH2; disulfide 1-6; N-terminus assumed) | – | – | – | – | 49.1 | 1700 | 3.68 | 1000 | effective in contracting tube foot and esophageal tissues | selectively activates only the V1B receptor and has little effect on other receptors |
